A short description of data set [1]: Inhibition of AAPH-induced linoleic acid peroxidation. The following applies: 37 °C, 234 nm.
Data set [2] can be described thus: Experimental lipophilicity RM by reverse phase thin layer chromatography (RP-TLC). It counts as physicochemical. The conditions noted are these: methanol-water mobile phase.
For data set [3], the target named is T1, soybean lipoxygenase (SLOX-1) (Glycine max, UniProt P08170).
T1 construct: 200 μL of plant-derived lipoxygenase solution (1:9 × 10^−4 w/v, in saline); purchased Sigma Chemical, Co; host or cells: soybean (plant-derived)
T1 sequence (P08170 1-839): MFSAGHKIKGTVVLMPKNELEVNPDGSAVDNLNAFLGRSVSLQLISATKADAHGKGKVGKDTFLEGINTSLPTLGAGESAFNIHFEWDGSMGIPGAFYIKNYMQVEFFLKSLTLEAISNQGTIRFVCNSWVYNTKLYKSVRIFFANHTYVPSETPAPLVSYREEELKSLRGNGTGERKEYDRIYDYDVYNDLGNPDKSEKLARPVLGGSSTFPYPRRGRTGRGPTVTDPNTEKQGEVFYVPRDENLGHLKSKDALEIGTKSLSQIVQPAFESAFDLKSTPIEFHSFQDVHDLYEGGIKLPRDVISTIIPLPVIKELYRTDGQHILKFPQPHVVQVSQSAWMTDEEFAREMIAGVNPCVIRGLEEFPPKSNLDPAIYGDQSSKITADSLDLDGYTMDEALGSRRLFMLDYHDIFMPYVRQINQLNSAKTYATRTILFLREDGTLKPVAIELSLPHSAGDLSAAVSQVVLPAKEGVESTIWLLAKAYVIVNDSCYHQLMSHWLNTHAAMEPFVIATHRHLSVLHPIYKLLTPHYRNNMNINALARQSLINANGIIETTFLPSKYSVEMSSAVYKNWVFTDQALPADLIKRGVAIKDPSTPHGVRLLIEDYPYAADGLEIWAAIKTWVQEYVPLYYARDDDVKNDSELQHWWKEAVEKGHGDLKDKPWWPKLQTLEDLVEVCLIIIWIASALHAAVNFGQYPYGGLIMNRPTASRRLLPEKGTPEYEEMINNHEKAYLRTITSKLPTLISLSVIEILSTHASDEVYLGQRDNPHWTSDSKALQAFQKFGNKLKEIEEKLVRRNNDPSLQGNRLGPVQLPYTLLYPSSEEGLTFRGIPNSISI
Put plainly: Inhibition of soybean lipoxygenase in vitro. It counts as biochemical. The following applies: 100 μM, pH 9, sodium linoleate substrate; read-out: LOX% Inhibition, 100 μM (±SD). Summed up: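 SLOX-1 in Tris-HCl pH 9.0 with sodium linoleate (3 mM solution, stock level) as substrate and DMSO vehicle control. Conversion to 13-hydroperoxide followed by absorbance at 234 nm.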

The nature of data set [4]: Interaction with the stable free radical DPPH (reducing activity). The conditions noted are these: 517 nm.

As usually defined, the inhibition is the share of the control response that was lost under treatment. Regarding `C(=C\c1ccccc1)/C1=NN(c2ccccc2)C(c2ccccc2)C1` (stereo not shown) [Compound 2a, (E)-1,5-Diphenyl-3-styryl-4,5-dihydro-1H-pyrazole], the “AAPH% Inhibition, 100 μM (±SD)” value in data set [1] was found to be 44 ± 0.7%. In data set [2], the “RM ± SD” value is listed as 1.00 ± 0.084. The inhibition at 100 µM in data set [3] was determined as 42 ± 2.4%. Besides, the “RA%, 100 μM, 60 min (±SD)” value in data set [4] is given as 17 ± 1.2%.

Consider `O=C(/C=C/c1ccc(Cl)cc1)/C=C/c1ccc(Cl)cc1` [Compound 1d, (1E,4E)-1,5-bis(4-chlorophenyl)-1,4-pentadien-3-one], for which the “AAPH% Inhibition, 100 μM (±SD)” value in data set [1] is recorded as 53 ± 0.6%. Further, the “RM ± SD” value in data set [2] is on record as 0.50 ± 0.042. The inhibition at 100 µM in data set [3] worked out at 38 ± 0.7%. Further, the “RA%, 100 μM, 20 min (±SD)” value in data set [4] (20 min) came out at 86 ± 4.5%. Further, the “RA%, 100 μM, 60 min (±SD)” value in data set [4] is 95 ± 4.8%.

Consider `CN(C)c1ccc(/C=C/C(=O)/C=C/c2ccc(N(C)C)cc2)cc1` [Compound 1e, (1E,4E)-1,5-bis(4-dimethylaminophenyl)-1,4-pentadien-3-one], for which the “AAPH% Inhibition, 100 μM (±SD)” value in data set [1] is recorded as 50 ± 0.5%. In addition, the “RM ± SD” value in data set [2] is on record as −0.14 ± 0.009. Further, in data set [3], the inhibition at 100 µM is 24 ± 0.6%. For the same molecule, in data set [4], the “RA%, 100 μM, 60 min (±SD)” value worked out at 100 ± 8.7%.
